Results published in patent US8937096B2, “Use of benzo-fused heterocyle sulfamide derivatives for the treatment of mania and bipolar disorder” (priority 2005, dated 2015).
“Also recorded” adds a separate entry of the source.

Legend:
[1] = tested on: amygdala kindled seizures; test: Amygdala Kindling Assay (Kindling Prevention); format: in vivo, rat
[2] = tested on: LTG-resistant amygdala kindled seizures; test: Lamotrigine Resistant Amygdala Kindled Rat Model (Interruption of Kindled State); format: in vivo; conditions: 75 mg/kg i.p.
Method: Amygdala kindling is less severe than hippocampal kindling, such that many AEDs are effective against amygdala kindled seizures, but are ineffective against hippocampal kindled seizures. […] Fifteen minutes after the last stimulation, a single dose of vehicle or test compound was administered i.p. After 15 min, each rat was then stimulated every 30 min for 3 to 4 h. After each stimulation, individual seizure scores and after-discharge durations were recorded. The group mean±SEM was calculated for each parameter.

submissive rats = test: Dominant-Submissive Relations (DSR) assay: Reduction of Submissive Behavior Model (RSBM) of depression; format: in vivo, rat
Method: (§1) The DSR assay is divided into two models: Reduction of Dominant Behavior Model (RDBM) of mania and Reduction of Submissive Behavior Model (RSBM) of depression. The RDBM, wherein the dominant animals are treated with test compound, is predictive of the ability of the test compound to treat mania. The RSBM, wherein the submissive animals are treated with test compound, is predictive of the ability of the test compound to treat depression.
(§2) Male Sprague Dawley rats (140 to 160 g) from Charles River Laboratories Wilmington, Mass. were used in this assay. Shipments of rats were received at two-week intervals. Each shipment went through five-day quarantine, one-week acclimation period, and one-week selection process, followed by five-weeks of drug or vehicle treatment to those pairs selected.
(§3) Rats were housed four per cage. Access to food was restricted to one hour per day after testing on Monday through Thursday. After testing on Friday, rats had free access to food until being fasted again on Sunday. At no time were the rats deprived of water. The food deprivation periods used had little effect on weight gain as the average weight of rats was about 300 g at the end of the study. At the conclusion of experiment rats were sacrificed by decapitation, the trunk blood and brains were collected for in vitro experiments and drug concentration measurements.
(§4) The basic testing apparatus consisted of two chambers connected with a tunnel only large enough to allow one rat to pass through at a time. On the floor, at the mid-point of the tunnel was a container of sweetened milk. This basic apparatus was replicated, so that a total of four pairs of rats can be video tracked simultaneously. The camera can distinguish rats marked by different colors. Thus, the rats' heads were colored for the purpose of video tracking, red in one cage and yellow in the other cage. Only one animal at a time can have comfortable access to the feeder, but both animals can drink milk during the five-minute daily session. During the five-minute daily sessions, time spent in the feeder zone by each rat was recorded by the video tracking software and saved into a text file.
The test began with a random assignment of rats into pairs. Each member of a pair was placed in an opposite chamber of the testing apparatus. The time spent in the feeder zone by each animal was recorded. During the first week (five days) of testing the animals habituate to the new environment. Dominance was assigned to the animal with the highest score during the second week of testing if three criteria were achieved. First, there must have been a significant difference (two-tailed t-test, P<0.05) between the average daily drinking scores of both animals. Second, the dominant animal score must have been at least 25% greater than the submissive animal's score. Finally, there must have been no “reversals” during the pair selection week where the putative submissive rat out-scored its dominant partner on isolated occasions. Ideally there were minimal reversals during the acclimation week as well. About twenty-five to thirty-three percent of the initial animal pairs achieved these criteria and only these pairs were continued in the study. […]
(§5) Significant differences between time spent on the feeder by dominant and submissive rats were determined by ANOVA using GraphPad Prism software (GraphPad Software, Inc. San Diego, Calif.) followed by a two-tailed t-test (P<0.05). Comparisons were made between treatment groups using normalized dominance level values in paired animals. The dominance level is a value that measures social relation between paired subjects. Dominance level (DL)=FTD−FTS where FTD is the feeder time of dominant rats and FTS is the feeder time of submissive rats. The normalization was conducted according to the formula: Dominance Level(week n in %)=(Dominance Level(week n))/(Dominance Level(week 2) […]

dominant rats = test: Dominant-Submissive Relations (DSR) assay: Reduction of Dominant Behavior Model (RDBM) of mania; format: in vivo, rat
Method: as §1, §2, §3, §4
The test began with a random assignment of rats into pairs. Each member of a pair was placed in an opposite chamber of the testing apparatus. The time spent in the feeder zone by each animal was recorded. During the first week (five days) of testing the animals habituate to the new environment. Dominance was assigned to the animal with the highest score during the second week of testing if three criteria were achieved. First, there must have been a significant difference (two-tailed t-test, P<0.05) between the average daily drinking scores of both animals. Second, the dominant animal score must have been at least 25% greater than the submissive animal's score. Finally, there must have been no “reversals” during the pair selection week where the putative submissive rat out-scored its dominant partner on isolated occasions. Ideally there were minimal reversals during the acclimation week as well. About twenty-five to thirty-three percent of the initial animal pairs achieved these criteria and only these pairs were continued in the study.
as §5

For `NS(=O)(=O)NC[C@H]1COc2cc(Cl)ccc2O1` [Compound #8, (2S)-(−)-N-(6-Chloro-2,3-dihydro-benzo[1,4]dioxin-2-ylmethyl)-sulfamide], the acquisition of kindling ([1]; 75 mg/kg i.p.) was “prevented the acquisition of the full generalized kindled seizure”, the “seizure score at the conclusion of the drug- and stimulus-free period” value ([1]; 75 mg/kg i.p. during kindling acquisition, Racine scale, vehicle 4.6±0.24) was 1.4±0.40 and the “after-discharge (AD) duration vs vehicle” value ([1]; 75 mg/kg i.p., kindling acquisition phase) was “No statistical difference between treatment groups”. For the same compound, the after-discharge duration reduced [2] was 86%, the “rats exhibiting ataxia and sedation” value ([2]; n=9) was “Four of the nine” and the rats protected ([2]; n=9) was “Eight out of nine”. For the same compound, the “after-discharge duration after treatment” value ([2]; from 73 sec) was 10 s, the “seizure score after treatment” value ([2]; reduced from a 5) was 0.8 and the “loss of significance between dominant and submissive rats feeder time” value (submissive rats; 2.5 mg/kg and 120.0 mg/kg p.o.) was “no consistent loss of significance”. For the same compound, the “Activity Onset Time at the 50% effect (AOT50)” value (submissive rats; 2.5 mg/kg p.o.) was 2.1 days, the “Dominance Level (DL) values vs control” value (submissive rats; 2.5 mg/kg p.o.) was “did not significantly differ from control” and the “maximum of the effect (non-linear regression), ± SEM” value (submissive rats; 2.5 mg/kg p.o.) was 52.4±32.7%. The “Activity Onset Time at the 50% effect (AOT50)” value (submissive rats; 12 mg/kg p.o.) was 5.3 days, the “maximum of the effect (non-linear regression), ± SEM” value (submissive rats; 12 mg/kg p.o.) was 87.9±42.6% and the “Dominance Level (DL) values vs control” value (submissive rats; 12.0 mg/kg p.o.) was “significantly different from vehicle treated controls after the second, fourth and fifth week of treatment”. For the same compound, the “first day of consistent lack of statistical significance between feeder time of dominant and submissive rats (activity onset time)” value (submissive rats; 12.0 mg/kg p.o.) was 6 days, the “Activity Onset Time at the 50% effect (AOT50)” value (submissive rats; 60 mg/kg p.o.) was 1.6 days and the “Dominance Level (DL) values vs control” value (submissive rats; 60 mg/kg p.o.) was “significant difference in DL values relative to vehicle starting at the first week and continuing through the treatment duration of 5 weeks”. For the same compound, the “first day of consistent lack of statistical significance between feeder time of dominant and submissive rats (activity onset time)” value (submissive rats; 60 mg/kg p.o.) was 4 days, the “maximum of the effect (non-linear regression), ± SEM” value (submissive rats; 60 mg/kg p.o.) was 116.9±29.5% and the “Dominance Level (DL) values vs control” value (submissive rats; 120 mg/kg p.o., significance dissipated after the second week) was “significantly different from the control group after first week”. For the same compound, the “submissiveness during first week of treatment” value (submissive rats; fluoxetine 10 mg/kg i.p., Compound #8 treated groups p.o.) was “did not show this effect”, the submissive behavior (submissive rats; p.o. once a day for 5 weeks, 2.5-120 mg/kg) was “reduce submissive behavior in a dose-dependent manner; also recorded: reduced submissive behavior” and the “Emax in the RSBM” value (submissive rats; p.o., calculated) was 131.4±4.7%. The “significant difference between dominant and submissive rats lost” value (submissive rats; submissive rats treated p.o., all doses used (2.5, 12, 60, 120 mg/kg)) was “lost after the first week of treatment”, the “AOT50 compared with lithium” value (dominant rats; 0.05 mg/kg and 0.5 mg/kg, non-linear regression fit of normalized daily DL values) was “significantly shorter from that of lithium” and the “first day of consistent lack of statistical significance between feeder time of dominant and submissive rats (activity onset time)” value (dominant rats; 0.05 mg/kg p.o. QD) was 3 days. For the same compound, the “first day of consistent lack of statistical significance between feeder time of dominant and submissive rats (activity onset time)” value (dominant rats; 0.5 mg/kg p.o. QD) was 4 days, the “dominance level (DL) values vs vehicle” value (dominant rats; 0.5 mg/kg p.o. QD, 5 weeks, strongest effect) was “significant difference in dominance level (DL) values between vehicle and compound treated rats starting in the second week” and the “first day of consistent lack of statistical significance between feeder time of dominant and submissive rats (activity onset time)” value (dominant rats; 2.5 mg/kg p.o. QD) was 10 days. For the same compound, the “dominance level (DL) response” value (dominant rats; 2.5 mg/kg, 5.0 mg/kg and 50.0 mg/kg p.o., compared with 0.5 mg/kg dose (not significantly different)) was “weaker response”, the “first day of consistent lack of statistical significance between feeder time of dominant and submissive rats (activity onset time)” value (dominant rats; 5.0 mg/kg p.o. QD) was 11 days and the “first day of consistent lack of statistical significance between feeder time of dominant and submissive rats (activity onset time)” value (dominant rats; 50.0 mg/kg p.o. QD) was 3 days. For the same compound, the ED50 (dominant rats; Rattus norvegicus, po, p.o. QD, calculated) was 0.03 ± 0.004 mg/kg, the “difference between dominant and submissive rats lost” value (dominant rats; dominant rats treated p.o. QD at 0.05 mg/kg, 0.5 mg/kg and 50.0 mg/kg) was “lost after the first week of treatment” and the “difference between dominant and submissive rats lost” value (dominant rats; dominant rats treated p.o. QD at 2.5 mg/kg and 5.0 mg/kg) was “after the second week of treatment”. For the same compound, the dominant behavior (dominant rats; overall result of the assay) was “reduced dominant behavior”, the “Emax in the RDBM” value (dominant rats; p.o. QD, calculated) was 116.4±2.3% and the “permissiveness of the treated dominant rats” value (dominant rats; treated dominant rats permitted submissive partners to increase time on the feeder) was “observed to increase”.
